# Measured values published in US8940857B2, “Methods and compositions for enhancing delivery of double-stranded RNA or a double-stranded hybrid nucleic acid to regulate gene expression in mammalian cells” (Marina Biotech, Inc., priority 2004, dated 2015).
# Oligonucleotides are written 5' to 3', each unit as a sugar letter and its base; * is a phosphorothioate linkage, no mark a phosphodiester; rarer units and linkages stand in square brackets, end groups in braces. Plain capitals give the bases only. No end group written: not given here. maleimide = maleimide group (amino-terminal modification); d = 2'-deoxy (DNA); r = 2'-OH (RNA)
# Tested on: beta-galactosidase mRNA
# Assay: Transfection of 9L/LacZ cells with siRNA and lipofectamine, beta-Gal/BCA assay (silencing of beta-galactosidase)
# Type: cell-based
# Conditions: 9L/beta-gal cells, transfected with lipofectamine; control = cells transfected by lipofectamine alone; lower = greater efficacy
# Description: Transfection of 9L/LacZ Cells:
# • a) Take saturated 9L/LacZ culture from T75 flask, detach cell and dilute into 10 ml with complete medium (DMEM, 1× PS, 1× Na Pyruvate, 1× NEAA). • b) Further dilute the cell to 1:15, and seed 100 μl into each 96 well, which should give 50% confluence cell the next day for transfection. […] Flow Cytometry Measurement of FITC/FAM Conjugated siRNA • a) After transfection, incubate cell for at least 3 hours. • b) Wash with 200 μl PBS. • c) Detach cell with 15 μl TE, incubate at 37° C. • d) Re-suspend five wells with 30 μl FACS solution (PBS with 0.5% BSA, and 0.1% sodium Azide) • e) Combine all five wells into a tube. • f) Add PI 5 μl into each tube. • g) Analyze the cells with fluorescence activated cell sorting (FCAS) with BD FACscan instrument according to manufacture's instruction.
# The transfection was performed with either regular siRNA or cholesterol-conjugated siRNA with lipofectamine (Invitrogen) on 9L/beta-gal cells. The siRNA was designed to specifically knock down beta-galactosidase mRNA and activities are expressed as percentage of beta-gal activities from control (transfected cells by lipofectamine alone). […]
row,Substance,Activity (% of control): beta-galactosidase activity remaining after the transfection
1,AA: siRNA construct with no cholesterol conjugated to any of the ends of the sense or antisense RNA strands (SEQ ID NO: 14/15) (sense rCrUrArCrArCrArArArUrCrArGrCrGrArUrUrUdTdT; antisense rArArArUrCrGrCrUrGrArUrUrUrGrUrGrUrArGdTdT),23.12 % of control

# Tested on: epithelial monolayers
# Assay: Peptide-mediated changes in trans-epithelial electrical resistance (TEER), permeation across epithelial monolayers
# Type: cell-based
# Conditions: measured by peptide-mediated changes in TEER
row,Substance,Effects (activity to enhance permeation across epithelial monolayers)
1,RQIKIWFQNRRMKWKK-amide (SEQ ID NO: 2) (RQIKIWFQNRRMKWKK-NH2) [PN0058],+
2,BrAc-KLALKLALKALKAALKLA-amide (SEQ ID NO: 4) (HELM PEPTIDE1{[O=C(CBr)[*:2]].K.L.A.L.K.L.A.L.K.A.L.K.A.A.L.K.L.A.[am]}$$$$V2.0; SMILES CC(C)C[C@H](NC(=O)[C@H](C)NC(=O)[C@H](CCCCN)NC(=O)[C@H](CC(C)C)NC(=O)[C@H](C)NC(=O)[C@H](CC(C)C)NC(=O)[C@H](CCCCN)NC(=O)[C@H](CC(C)C)NC(=O)[C@H](C)NC(=O)[C@H](CC(C)C)NC(=O)[C@H](CCCCN)NC(=O)CBr)C(=O)N[C@@H](CCCCN)C(=O)N[C@@H](C)C(=O)N[C@@H](C)C(=O)N[C@@H](CC(C)C)C(=O)N[C@@H](CCCCN)C(=O)N[C@@H](CC(C)C)C(=O)N[C@@H](C)C(N)=O) [PN0068],+
3,Maleimide-GLGSLLKKAGKKLKQPKSKRKV-amide (SEQ ID NO: 12) (maleimide-GLGSLLKKAGKKLKQPKSKRKV-NH2) [PN283],+
4,RRRRRRR (SEQ ID NO: 6) [PN0071],−
5,NH2-LLETLLKPFQCRICMRNFSTRQARRNHRRRHRR-amide (SEQ ID NO: 9) (H-LLETLLKPFQCRICMRNFSTRQARRNHRRRHRR-NH2; cysteine pairing not given here) [PN202],+
6,BrAc-GWTLNSAGYLLGKINLKALAALAKKILamide (SEQ ID NO: 3) [PN0064],+
7,NH2-AAVALLPAVLLALLAPRKKRRQRRRPPQ-amide (SEQ ID NO: 8) (H-AAVALLPAVLLALLAPRKKRRQRRRPPQ-NH2) [PN027],+
8,NH2-KETWWETWWTEWSQPGRKKRRQRRRPPQ-amide (SEQ ID NO: 11) (H-KETWWETWWTEWSQPGRKKRRQRRRPPQ-NH2) [PN183],+
9,GRKKRRQRRRPQ-amide (SEQ ID NO: 5) (GRKKRRQRRRPQ-NH2) [PN0069],−
10,RKKRRQRRRPPQCAAVALLPAVLLALLAP-amide (SEQ ID NO: 1) (RKKRRQRRRPPQCAAVALLPAVLLALLAP-NH2) [PN0028],+
11,NH2-RRRQRRKRGGDIMGEWGNEIFGAIAGFLG-amide (SEQ ID NO: 10) (H-RRRQRRKRGGDIMGEWGNEIFGAIAGFLG-NH2; listed as Influenza virus) [PN250],+
